Assay results: patent US9527832B2, “Substituted condensed pyrimidine compounds” (GRÜNENTHAL GMBH, priority 2013, dated 2016)
Read-outs that look alike come from different tables or passages of the source. Each block holds one compound with its values, some of them ahead of it.

Target: T1, human PDE4B1 (Homo sapiens, UniProt Q07343)
T1 construct: host or cells: Sf9 cells
Assay: cAMP HTRF assay to determine the activity of hPDE4B1
Format: biochemical
Conditions: for inhibition at 1 µM: Percentage inhibition of PDE4B at 1 μM test concentration; for IC50: reported as ranges
Procedure: cAMP HTRF® Assay to Determine the Activity of hPDE4B1
The inhibiting effect of the compounds on the enzyme activity of human PDE4B1 was measured by the quantification of 5′-adenosine monophosphate (5′-AMP), which is formed from 3′,5′-cyclic adenosine monophosphate (cAMP). Human recombinant enzyme, expressed in Sf9 cells, and the HTRF (homogeneous time-resolved fluorescence) detection method were used in the assay.
The test compound or water (control) was mixed with the human recombinant PDE4B1 enzyme (4.8 U) in a buffer consisting of 44.4 mM tris-HCl, 5.28 mM MgCl2, 2.64 mM DTT and 0.044% Tween 20 (pH 7.8). After adding the cAMP enzyme substrate (final concentration 40 nM), the mixture was incubated for 30 minutes at room temperature. Then a fluorescence acceptor (Dye2 marked with cAMP), a fluorescence donor (anti-cAMP antibody marked with a europium cryptate) and the non-specific phosphodiesterase inhibitor IBMX (3-isobutyl-1-methylxanthine; final concentration 1 mM) were added. After 60 minutes the fluorescence transfer, which correlates with the amount of remaining cAMP, was measured with a microplate reader (Rubystar, BMG) at λex=337 nm, λem=620 nm and λem=665 nm. The enzyme activity was calculated from the quotient formed from the measured signal at 665 nm and that at 620 nm. The result was expressed as the percentage inhibition of enzyme activity of the control (without PDE4 inhibitor). The enzyme was omitted for measurement of the basal control.
IC50 values (IC50=concentration causing a half-maximal inhibition of control specific activity) were derived from dose response measurements with eight different concentrations (n=2; N=1-2).
Literature: N. Saldou et al., Comparison of recombinant human PDE4 isoforms: interaction with substrate and inhibitors, Cell. Signal. Vol. 10, No. 6, 427-440, 1998

[1] = dose response measurements with eight concentrations, read-out: IC50

T1 sequence (Q07343 whole entry): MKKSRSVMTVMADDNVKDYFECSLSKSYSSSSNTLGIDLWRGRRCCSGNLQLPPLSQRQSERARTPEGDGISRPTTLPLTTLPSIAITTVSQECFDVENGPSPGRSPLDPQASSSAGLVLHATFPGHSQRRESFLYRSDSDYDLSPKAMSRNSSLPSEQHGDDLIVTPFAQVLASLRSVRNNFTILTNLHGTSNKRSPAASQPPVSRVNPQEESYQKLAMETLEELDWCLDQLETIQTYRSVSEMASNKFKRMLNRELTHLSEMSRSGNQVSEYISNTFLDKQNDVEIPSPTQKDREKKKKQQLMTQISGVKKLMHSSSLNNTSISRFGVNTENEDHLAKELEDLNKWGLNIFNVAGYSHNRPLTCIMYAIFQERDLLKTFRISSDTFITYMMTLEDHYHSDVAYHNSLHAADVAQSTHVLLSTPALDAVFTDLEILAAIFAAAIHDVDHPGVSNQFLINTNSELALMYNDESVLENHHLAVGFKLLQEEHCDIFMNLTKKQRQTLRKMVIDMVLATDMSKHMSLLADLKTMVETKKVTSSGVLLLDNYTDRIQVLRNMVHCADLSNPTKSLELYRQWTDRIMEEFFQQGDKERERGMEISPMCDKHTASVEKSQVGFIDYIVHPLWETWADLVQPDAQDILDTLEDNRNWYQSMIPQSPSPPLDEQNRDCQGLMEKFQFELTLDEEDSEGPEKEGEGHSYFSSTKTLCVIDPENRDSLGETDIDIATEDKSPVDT

SMILES: CN(C)CCOc1ccc2c(c1)N(c1nc(-c3ccc(Cl)s3)nc3c1CS(=O)(=O)C3)CC2 [Compound No. 3-3, 2-(5-Chlorothiophen-2-yl)-4-(6-(2-(dimethylamino)ethoxy)indolin-1-yl)-5,7-dihydrothieno[3,4-d]pyrimidine 6,6-dioxide]
IC50 [1]: 100 to 1000 nM

SMILES: CN(C)C(=O)COc1ccc2c(c1)N(c1nc(-c3ccc(Br)c(F)c3)nc3c1C[S+]([O-])C3)CC2 (centres unmarked) [Compound No. 2-86, 2-((1-(2-(4-Bromo-3-fluorophenyl)-6-oxido-5,7-dihydrothieno[3,4-d]pyrimidin-4-yl)indolin-6-yl)oxy)-N,N-dimethylacetamide]
inhibition at 1 µM: 111% | IC50 [1]: 100 to 1000 nM

SMILES: COc1ccccc1-c1nc2c(c(N3CCc4ccc(OCC(=O)N(C)C)cc43)n1)C[S+]([O-])C2 (centres unmarked) [2-88, 2-[[1-[2-(2-Methoxyphenyl)-6-oxo-5,7-dihydro-thieno[3,4-d]pyrimidin-4-yl]-2,3-dihydro-1H-indol-6-yl]oxy]-N,N-dimethyl-acetamide]
inhibition at 1 µM: 73% | IC50 [1]: 100 to 1000 nM

SMILES: COc1ccc(-c2nc3c(c(N4CCc5ccc(OCC(=O)N6CCCC6)cc54)n2)C[S+]([O-])C3)cc1 (centres unmarked) [Compound No. 2-121, 2-((1-(2-(4-Methoxyphenyl)-6-oxido-5,7-dihydrothieno[3,4-d]pyrimidin-4-yl)indolin-6-yl)oxy)-1-(pyrrolidin-1-yl)ethanone]
inhibition at 1 µM: 111%

SMILES: CN(C)C(=O)COc1ccc2c(c1)N(c1nc(-c3cccc(C(F)(F)F)c3)nc3c1C[S+]([O-])C3)CC2 (centres unmarked) [2-101, N,N-Dimethyl-2-[[1-[6-oxo-2-[3-(trifluoromethyl)phenyl]-5,7-dihydro-thieno[3,4-d]pyrimidin-4-yl]-2,3-dihydro-1H-indol-6-yl]oxy]-acetamide]
inhibition at 1 µM: 120% | IC50 [1]: < 100 nM

SMILES: COc1ccc(-c2nc3c(c(N4CCc5ccc(OCC(=O)N(C)C)cc54)n2)C[S+]([O-])C3)cc1F (centres unmarked) [Compound No. 2-36, 2-((1-(2-(3-Fluoro-4-methoxyphenyl)-6-oxido-5,7-dihydrothieno[3,4-d]pyrimidin-4-yl)indolin-6-yl)oxy)-N,N-dimethylacetamide]
inhibition at 1 µM: 98% | IC50 [1]: < 100 nM

SMILES: CN(C)C(=O)COc1ccc2ccn(-c3nc(-c4ccc(Cl)s4)nc4c3C[S+]([O-])C4)c2c1 (centres unmarked) [Compound No. 2-73, 2-((1-(2-(5-Chlorothiophen-2-yl)-6-oxido-5,7-dihydrothieno[3,4-d]pyrimidin-4-yl)-1H-indol-6-yl)oxy)-N,N-dimethylacetamide]
inhibition at 1 µM: 116% | IC50 [1]: < 100 nM

SMILES: CN(C)C(=O)COc1ccc2c(c1)N(c1nc(-c3ccc4sccc4c3)nc3c1C[S+]([O-])C3)CC2 (centres unmarked) [2-155, 2-[[1-[2-(Benzo[b]thiophen-5-yl)-6-oxo-5,7-dihydro-thieno[3,4-d]pyrimidin-4-yl]-2,3-dihydro-1H-indol-6-yl]oxy]-N,N-dimethyl-acetamide]
inhibition at 1 µM: 102% | IC50 [1]: < 100 nM

SMILES: COc1cccc(-c2nc3c(c(N4CCc5ccc(OCC(=O)N(C)C)cc54)n2)C[S+]([O-])C3)c1 (centres unmarked) [2-91, 2-[[1-[2-(3-Methoxyphenyl)-6-oxo-5,7-dihydro-thieno[3,4-d]pyrimidin-4-yl]-2,3-dihydro-1H-indol-6-yl]oxy]-N,N-dimethyl-acetamide]
inhibition at 1 µM: 117% | IC50 [1]: < 100 nM

SMILES: CN(C)C(=O)COc1ccc2c(c1)N(c1nc(-c3cc(F)ccc3F)nc3c1C[S+]([O-])C3)CC2 (centres unmarked) [2-113, 2-[[1-[2-(2,5-Difluoro-phenyl)-6-oxo-5,7-dihydro-thieno[3,4-d]pyrimidin-4-yl]-2,3-dihydro-1H-indol-6-yl]oxy]-N,N-dimethyl-acetamide]
inhibition at 1 µM: 99% | IC50 [1]: < 100 nM

SMILES: CN(C)C(=O)COc1ccc2oc(=O)n(-c3nc(-c4ccc(Cl)s4)nc4c3C[S+]([O-])C4)c2c1 (centres unmarked) [2-76, 2-((3-(2-(5-Chlorothiophen-2-yl)-6-oxido-5,7-dihydrothieno[3,4-d]pyrimidin-4-yl)-2-oxo-2,3-dihydrobenzo[d]oxazol-5-yl)oxy)-N,N-dimethylacetamide]
inhibition at 1 µM: 62% | IC50 [1]: 100 to 1000 nM

SMILES: CN1CCN(C(=O)COc2ccc3c(c2)N(c2nc(-c4ccc(Cl)s4)nc4c2CS(=O)(=O)C4)CC3)CC1 [Compound No. 2-123, 2-((1-(2-(5-Chlorothiophen-2-yl)-6,6-dioxido-5,7-dihydrothieno[3,4-d]pyrimidin-4-yl)indolin-6-yl)oxy)-1-(4-methylpiperazin-1-yl) ethanone]
IC50 (IC50, dose response measurements with eight concentrations): < 100 nM | inhibition at 1 µM: 95%

SMILES: CN(C)C(=O)COc1ccc2c(c1)N(c1nc(-c3ccc4ccncc4c3)nc3c1C[S+]([O-])C3)CC2 (centres unmarked) [2-150, 2-[[1-(2-Isoquinolin-7-yl-6-oxo-5,7-dihydro-thieno[3,4-d]pyrimidin-4-yl)-2,3-dihydro-1H-indol-6-yl]oxy]-N,N-dimethyl-acetamide]
inhibition at 1 µM: 126% | IC50 [1]: < 100 nM

SMILES: CN(C)C(=O)COc1ccc2c(c1)N(c1nc(-c3ccccc3Cl)nc3c1C[S+]([O-])C3)CC2 (centres unmarked) [2-96, 2-[[1-[2-(2-Chlorophenyl)-6-oxo-5,7-dihydro-thieno[3,4-d]pyrimidin-4-yl]-2,3-dihydro-1H-indol-6-yl]oxy]-N,N-dimethyl-acetamide]
inhibition at 1 µM: 107% | IC50 [1]: < 100 nM

The remaining lines, values ahead:

inhibition at 1 µM: 93% | IC50 [1]: < 100 nM
SMILES: O=C(O)Cc1ccc2c(c1)CCN2c1nc(-c2ccc(F)s2)nc2c1CSC2 [Compound No. 1-23, 2-(1-(2-(5-Fluorothiophen-2-yl)-5,7-dihydrothieno[3,4-d]pyrimidin-4-yl)indolin-5-yl)acetic acid]

inhibition at 1 µM: 62% | IC50 [1]: 100 to 1000 nM
SMILES: COC(=O)COc1ccc2c(c1)N(c1nc(-c3ccc(Cl)s3)nc3c1CS(=O)(=O)C3)CC2 [Compound No. 1-77, Methyl 2-((1-(2-(5-chlorothiophen-2-yl)-6,6-dioxido-5,7-dihydrothieno[3,4-d]pyrimidin-4-yl)indolin-6-yl)oxy)acetate]

inhibition at 1 µM: 99%
SMILES: CN(C)C(=O)COc1ccc2c(c1)N(c1nc(-c3ccc(C(N)=O)s3)nc3c1CCC3)CC2 [2-85, 5-(4-(6-(2-(Dimethylamino)-2-oxoethoxy)indolin-1-yl)-6,7-dihydro-5H-cyclopenta[d]pyrimidin-2-yl)thiophene-2-carboxamide]

inhibition at 1 µM: 34%
SMILES: O=C(O)c1ccc2c(c1)oc(=O)n2-c1nc(-c2ccc(Cl)s2)nc2c1CCC2 [Compound No. 1-68, 3-(2-(5-Chlorothiophen-2-yl)-6,7-dihydro-5H-cyclopenta[d]pyrimidin-4-yl)-2-oxo-2,3-dihydrobenzo[d]oxazole-6-carboxylic acid]

inhibition at 1 µM: 64% | IC50 [1]: 100 to 1000 nM
SMILES: O=C(O)Cc1ccc2c(ccn2-c2nc(-c3ccc(Cl)s3)nc3c2CCC3)c1 [Compound No. 1-71, 2-(1-(2-(5-Chlorothiophen-2-yl)-6,7-dihydro-5H-cyclopenta[d]pyrimidin-4-yl)-1H-indol-5-yl)acetic acid]

inhibition at 1 µM: 111% | IC50 [1]: < 100 nM
SMILES: O=C(O)Cc1ccc2c(c1)CCN2c1nc(-c2ccc(F)s2)nc2c1C[S+]([O-])C2 (centres unmarked) [Compound No. 1-24, 2-(1-(2-(5-Fluorothiophen-2-yl)-6-oxido-5,7-dihydrothieno[3,4-d]pyrimidin-4-yl)indolin-5-yl)acetic acid]

inhibition at 1 µM: 61% | IC50 [1]: 100 to 1000 nM
SMILES: COc1ccc(-c2nc3c(c(N4C(=O)Cc5cc(CC(=O)O)ccc54)n2)CCC3)cc1Cl [Compound No. 1-66, 2-(1-(2-(3-Chloro-4-methoxyphenyl)-6,7-dihydro-5H-cyclopenta[d]-pyrimidin-4-yl)-2-oxoindolin-5-yl)acetic acid]

inhibition at 1 µM: 38%
SMILES: O=C(COc1ccc2c(c1)N(c1nc(-c3ccc(Cl)s3)nc3c1CCC3)CC2)NC1CC1 [Compound No. 2-114, 2-((1-(2-(5-Chlorothiophen-2-yl)-6,7-dihydro-5H-cyclopenta[d]-pyrimidin-4-yl)indolin-6-yl)oxy)-N-cyclopropylacetamide]

inhibition at 1 µM: 23%
SMILES: CNC(=O)COc1ccc2c(c1)N(c1nc(-c3ccc(Cl)s3)nc3c1CCC3)CC2 [Compound No. 2-70, 2-((1-(2-(5-Chlorothiophen-2-yl)-6,7-dihydro-5H-cyclopenta[d]pyrimidin-4-yl)indolin-6-yl)oxy)-N-methylacetamide]

inhibition at 1 µM: 97% | IC50 [1]: < 100 nM
SMILES: CN(C)C(=O)COc1ccc2c(c1)N(c1nc(-c3ccc(C#N)s3)nc3c1CS(=O)(=O)C3)CC2 [Compound No. 2-83, 2-((1-(2-(5-Cyanothiophen-2-yl)-6,6-dioxido-5,7-dihydrothieno[3,4-d]pyrimidin-4-yl)indolin-6-yl)oxy)-N,N-dimethylacetamide]

inhibition at 1 µM: 95% | IC50 [1]: < 100 nM
SMILES: N#Cc1ccc(-c2nc3c(c(N4CCc5cc(CC(=O)O)ccc54)n2)CCC3)s1 [Compound No. 1-16, 2-(1-(2-(5-Cyanothiophen-2-yl)-6,7-dihydro-5H-cyclopenta[d]pyrimidin-4-yl)indolin-5-yl)acetic acid]
